In the assay the test system is AP-1 induced transcriptional activity. The assay is described as follows: Cellular Transrepressional Assay: AP-1 luciferase reporter in PMA-activated A549 cells. Type of assay: cell-based. Particulars: Homo sapiens; for Emax: A549, 7 h, maximum inhibition, Cellular Transrepression Assay, read-out: AP-1 Max % inh (Cellular Transrepression Assay); for EC50: A549, Cellular Transrepression Assay. Here is the method: Cellular Transrepressional Assay
To measure the ability of test molecules to inhibit AP-1 induced transcriptional activity we utilized an A549 cell which was stably transfected with a plasmid containing 7× AP-1 DNA binding sites (pAP-1-Luc plasmid, Stratagene Co. La Jolla, Calif.) followed by the gene for luciferase. Cells were activated with 10 ng/ml of […] (PMA) plus or minus test molecules for 7 hours. After 7 hours a luciferase reagent was added to measure luciferase enzymatic activity in the cell. After a 10 minute incubation of luciferase reagent with cells, luminescence was measured in a TopCount luminescence counter. Repression of AP-1 activity was calculated as the percentage decrease in the signal induced by PMA alone. Test molecules were analyzed in the concentration range from 0.1 nM to 40 μM. EC50s were determined by using standard curve fitting methods such as Excel fit (Microsoft Co.).
In general terms: Reporter assays use an easily measured gene product as a stand-in for the process of interest.

Consider `CC(C)(C(=O)Nc1nccs1)[C@@H](c1ccccc1)c1ccc(OC(=O)C2CCCO2)cc1` (stereo partly drawn) [Example 366, 4-((1S)-2,2-dimethyl-3-oxo-1-phenyl-3-(1,3-thiazol-2-ylamino)propyl)phenyl tetrahydro-2-furancarboxylate], for which the Emax was determined as 32.6% and the EC50 is 20 nM.
With `COc1ccc(C(c2ccccc2)C(C)(C)C(=O)Nc2nc(C)cs2)cc1` (stereo not drawn) [Example 104, 2,2-dimethyl-3-(4-(methyloxy)phenyl)-N-(4-methyl-1,3-thiazol-2-yl)-3-phenylpropanamide], the Emax amounted to 27.3%.
Regarding `CC(C)(C)c1ccc(C(c2ccccc2)C(C)(C)C(=O)Nc2nc(Cc3ccc(-c4ccncc4)cc3)cs2)cc1` (stereo not drawn) [Example 303, 3-(4-(1,1-dimethylethyl)phenyl)-2,2-dimethyl-3-phenyl-N-(4-((4-(4-pyridinyl)phenyl)methyl)-1,3-thiazol-2-yl)propanamide], the Emax came to 75.7% and the response was half-maximal at 16.6 nM (EC50).
Take `COc1ccccc1C(c1ccccc1)C(C)(C)C(=O)Nc1nc(-c2ccccc2)cs1` (stereo not drawn) [Example 84, 2,2-dimethyl-3-(2-(methyloxy)phenyl)-3-phenyl-N-(4-phenyl-1,3-thiazol-2-yl)propanamide]: the Emax came to 30.8%.
`COc1ccc(C(c2ccc(OC)cc2)C(C)(C)C(=O)Nc2nc(C(C)(C)C)cs2)cc1` [Example 74, N-(4-(1,1-dimethylethyl)-1,3-thiazol-2-yl)-2,2-dimethyl-3,3-bis(4-(methyloxy)phenyl)propanamide]: the Emax came out at 28.1%.
For the compound `CC(C)(C(=O)Nc1nncs1)C(c1ccccc1)c1ccc(-c2ccc(C(=O)N3CCOCC3)cc2)cc1` (stereo not drawn) [Example 401, 2,2-dimethyl-3-(4′-(4-morpholinylcarbonyl)-4-biphenylyl)-3-phenyl-N-1,3,4-thiadiazol-2-ylpropanamide], the Emax worked out at 47% and the EC50 amounted to 13.3 nM.
On to `CC(C)(C(=O)Nc1nc(-c2ccnc3ccccc23)cs1)C(c1ccccc1)c1ccccc1` [Example 184, 2,2-dimethyl-3,3-diphenyl-N-(4-(4-quinolinyl)-1,3-thiazol-2-yl)propanamide], for which the Emax was 57.5%.
`CCOC(=O)c1csc(NC(=O)C(C)(C)[C@H](c2ccccc2)c2ccc(OC)cc2)n1` [Example 264, ethyl 2-((2,2-dimethyl-3-(4-(methyloxy)phenyl)-3-phenylpropanoyl)amino)-1,3-thiazole-4-carboxylate]: the Emax was 58.6% and the concentration giving a half-maximal response (EC50) stood at 772 nM.
Turning to `Cc1ccc(C(c2ccc(N3CCOCC3)cc2)C(C)(C)C(=O)Nc2nccs2)cc1` (stereo not drawn) [Example 227, 2,2-dimethyl-3-(4-methylphenyl)-3-(4-(4-morpholinyl)phenyl)-N-1,3-thiazol-2-ylpropanamide], the Emax worked out at 43.7% and the EC50 came out at 666 nM.
With `CC(C)(C(=O)Nc1nccs1)[C@@H](c1ccccc1)c1ccc(O)c(C#N)c1` [Example 359, (3S)-3-(3-Cyano-4-hydroxyphenyl)-2,2-dimethyl-3-phenyl-N-1,3-thiazol-2-ylpropanamide], the Emax was determined as 65.2% and the EC50 was 278 nM.
Take `CC(C)(C(=O)Nc1nncs1)C(c1ccccc1)c1ccc(O)c(F)c1` (stereo not drawn) [Example 348, 3-(3-fluoro-4-hydroxyphenyl)-2,2-dimethyl-3-phenyl-N-1,3,4-thiadiazol-2-ylpropanamide]: the Emax was 54% and the EC50 came out at 120 nM.
The matching figures for `CC(C)(C(=O)Nc1nccs1)[C@@H](c1ccccc1)c1ccc(O)cc1` [Example 325, (3S)-3-(4-hydroxyphenyl)-2,2-dimethyl-3-phenyl-N-1,3-thiazol-2-ylpropanamide]: 57.8% and 53.9 nM.
For the compound `CC(C)Oc1ccc(-c2ccc(C(c3ccccc3)C(C)(C)C(=O)Nc3nncs3)cc2)cc1` (stereo not drawn) [Example 382, 2,2-dimethyl-3-(4′-((1-methylethyl)oxy)-4-biphenylyl)-3-phenyl-N-1,3,4-thiadiazol-2-ylpropanamide], the Emax is 40.1% and the concentration giving a half-maximal response (EC50) turned out to be 28.1 nM.
For `CC(C)(C(=O)Nc1nncs1)C(c1ccccc1)c1ccc(N2CCCCC2)cc1` (stereo not drawn) [Example 236, 2,2-dimethyl-3-phenyl-3-(4-(1-piperidinyl)phenyl)-N-1,3,4-thiadiazol-2-ylpropanamide], the Emax stood at 38.5% and the EC50 came out at 151 nM.
In the case of `COc1cccc(C(c2ccccc2)C(C)(C)C(=O)Nc2nc(Cc3ccc(-c4ccncc4)cc3)cs2)c1` (stereo not drawn) [Example 305, 2,2-dimethyl-3-(3-(methyloxy)phenyl)-3-phenyl-N-(4-((4-(4-pyridinyl)phenyl)methyl)-1,3-thiazol-2-yl)propanamide], the Emax is 84.2% and a half-maximal effect (EC50) was put at 22.5 nM.
In the case of `CC(C)(C(=O)Nc1nccs1)[C@@H](c1ccccc1)c1ccc(OC(=O)c2ccoc2)cc1` [Example 364, 4-((1S)-2,2-dimethyl-3-oxo-1-phenyl-3-(1,3-thiazol-2-ylamino)propyl)phenyl 3-furancarboxylate], the Emax was 39.1% and the EC50 is 184 nM.
For `COc1cccc(C(c2ccccc2)C(C)(C)C(=O)Nc2nc(C)c(C)s2)c1` (stereo not drawn) [Example 94, N-(4,5-dimethyl-1,3-thiazol-2-yl)-2,2-dimethyl-3-(3-(methyloxy)phenyl)-3-phenylpropanamide], the Emax amounted to 35.4%.
Regarding `Cc1csc(NC(=O)C(C)(C)C(c2ccccc2)c2cccc(O)c2)n1` (stereo not drawn) [Example 198, 3-(3-hydroxyphenyl)-2,2-dimethyl-N-(4-methyl-1,3-thiazol-2-yl)-3-phenylpropanamide], the Emax came to 25.8%.
Take `CC(C)(C(=O)Nc1nccs1)C(c1ccc(N2CCOCC2)cc1)c1cccc(F)c1` (single isomer, unassigned) [Example 253, 3-(3-fluorophenyl)-2,2-dimethyl-3-(4-(4-morpholinyl)phenyl)-N-1,3-thiazol-2-ylpropanamide]: the Emax was determined as 27.9% and the half-maximal effective concentration (EC50) came out at 37 nM.
Regarding `CC(C)(C(=O)Nc1nncs1)C(c1ccccc1)c1ccc(-c2ccc(-c3ccccc3)cc2)cc1` (stereo not drawn) [Example 404, 2,2-dimethyl-3-phenyl-3-(1,1′:4′,1″- terphenyl-4-yl)-N-1,3,4-thiadiazol-2-ylpropanamide], the Emax worked out at 21.9% and the response was half-maximal at 9.57 nM (EC50).
On to `CC(=O)c1ccc(-c2ccc(C(c3ccccc3)C(C)(C)C(=O)Nc3nncs3)cc2)cc1` (stereo not drawn) [Example 406, 3-(4′-acetyl-4-biphenylyl)-2,2-dimethyl-3-phenyl-N-1,3,4-thiadiazol-2-ylpropanamide], for which the Emax is 29.4% and the concentration giving a half-maximal response (EC50) stood at 39 nM.
On the same counts, the results for `CC(C)(C(=O)NC1CCCC1)[C@@H](c1ccccc1)c1ccc(O)cc1` [Example 335, (3S)-N-cyclopentyl-3-(4-hydroxyphenyl)-2,2-dimethyl-3-phenylpropanamide] are 21.2% and 9.32 nM.
On to `CC(C)(C(=O)Nc1nc(Cc2ccc(-c3ccncc3)cc2)cs1)C(c1ccccc1)c1cccc(O)c1` (stereo not drawn) [Example 357], for which the Emax stood at 73.7% and a half-maximal effect (EC50) was put at 144 nM.
Turning to `COc1ccc(-c2ccc(C(c3ccccc3)C(C)(C)C(=O)Nc3nncs3)cc2)cc1` (stereo not drawn) [Example 378, 2,2-dimethyl-3-(4′-(methyloxy)-4-biphenylyl)-3-phenyl-N-1,3,4-thiadiazol-2-ylpropanamide], the Emax was 26.2% and the response was half-maximal at 894 nM (EC50).
On to `CCOC(=O)c1sc(NC(=O)C(C)(C)C(c2ccccc2)c2cccc(OC)c2)nc1C` (stereo not drawn) [Example 100, ethyl 2-((2,2-dimethyl-3-(3-(methyloxy)phenyl)-3-phenylpropanoyl)amino)-4-methyl-1,3-thiazole-5-carboxylate], for which the Emax stood at 30%.
With `CC(=O)Oc1ccc([C@H](c2ccccc2)C(C)(C)C(=O)Nc2nccs2)cc1` [Example 361, 4-((1S)-2,2-dimethyl-3-oxo-1-phenyl-3-(1,3-thiazol-2-ylamino)propyl)phenyl acetate], the Emax was determined as 36.4% and the midpoint of the response, the EC50, lay at 13.3 nM.
As for `CC(C)(C(=O)Nc1nccs1)C(c1ccccc1)c1ccc(O)cc1` (stereo not drawn) [Example 209, 3-(4-hydroxyphenyl)-2,2-dimethyl-3-phenyl-N-1,3-thiazol-2-ylpropanamide], the Emax stood at 46.9% and the concentration giving a half-maximal response (EC50) was determined as 86.5 nM.
`COc1cccc(C(c2ccccc2)C(C)(C)C(=O)Nc2nc3ccccc3s2)c1` (stereo not drawn) [Example 101, N-1,3-benzothiazol-2-yl-2,2-dimethyl-3-(3-(methyloxy)phenyl)-3-phenylpropanamide]: the Emax is 26.9%.
For `CC(C)(C(=O)Nc1nncs1)[C@@H](c1ccccc1)c1ccc(O)cc1` [Example 339, (3S)-3-(4-hydroxyphenyl)-2,2-dimethyl-3-phenyl-N-1,3,4-thiadiazol-2-ylpropanamide], the Emax worked out at 60.8% and the EC50 was 30.5 nM.
`COc1ccc(C(c2ccccc2)C(C)(C)C(=O)Nc2nc(-c3ccccc3)cs2)cc1` (stereo not drawn) [Example 107, 2,2-dimethyl-3-(4-(methyloxy)phenyl)-3-phenyl-N-(4-phenyl-1,3-thiaozl-2-yl)propanamide]: the Emax was found to be 38.4%.
With `CC(C)(C(=O)Nc1nccs1)[C@H](c1ccccc1)c1ccc(N2CCOCC2)cc1` (stereo in doubt) [Example 258, 2,2-dimethyl-3-(4-(4-morpholinyl)phenyl)-3-phenyl-N-1,3-thiazol-2-ylpropanamide], the Emax was 42.7% and the EC50 is 10.5 nM.
Turning to `CCOC(=O)c1sc(NC(=O)C(C)(C)C(c2ccccc2)c2cccc(O)c2)nc1C` (stereo not drawn) [Example 206, ethyl 2-((3-(3-hydroxyphenyl)-2,2-dimethyl-3-phenylpropanoyl)amino)-4-methyl-1,3-thiazole-5-carboxylate], the Emax turned out to be 37.7%.

By EC50 is commonly meant the midpoint of the concentration-response curve.

Source of the values: patent publication US7968577B2 (Bristol-Myers Squibb Company, priority 2006, dated 2011).
